Laboratory results reported in US9234242B2, “Methods for treating depression using NCAM peptide mimetics” (THE BOARD OF THE TRUSTEES OF THE LELAND STANFORD JUNIOR …, priority 2005, dated 2016).

What was measured:
Rodents [1] = assay: Forced swim test (FST) after microinjection; assay type: in vivo, rats; settings: microinjection (intracerebroventricular), versus controls
Description: (§1) In another embodiment, the present invention provides methods for altering the behavioral profiles of rats by injecting the rats with FGF2, an NCAM peptide mimetic, and a peptide inhibitor of FGF receptors. Both FGF2 and the NCAM peptide mimetic have antidepressant-like effects in the forced swim test when injected intracerebroventricularly. […] In one embodiment of the invention, ligands that activate FGF receptors are used for their antidepressant effects in the therapeutic treatment of individuals with MDD.
(§2) This is indicative of less depression-like behavior in FGF2 animals.
(§3) Again, this is an index of less depression-like behavior. This is also in the same direction as the FGF2 data, consistent with the fact that both FGF2 and NCAM interact with the FGF receptor.
(§4) These observations are nevertheless consistent with the conclusions drawn from the microinjection studies above.

Rodents [2] = assay: Elevated plus maze (EPM) after microinjection; assay type: in vivo, rats; settings: microinjection (intracerebroventricular), versus controls
Description: as §1, §2, §3, §4

[3] = test system: FGFR2 and FGFR3 exon IIIc:IIIb splice variant ratio; assay: Real time RT-PCR of exon IIIc:IIIb splice variant ratio in frontal cortex, chronic unpredictable stress; assay type: in vivo, rats; settings: 5 ng/g i.p. every 48 hours for three weeks
Experimental: Half of the rats (n=12) were administered vehicle (0.1M PBS with 100 μg/mL bovine serum albumin), and the other half (n=12) were administered human recombinant FGF2 dissolved in vehicle in 5 ng/g dosages (Sigma, St. Louis, Mo.) every 48 hours for three weeks. All treatments were injected intra-peritoneally. During the same three week period as the FGF2 treatments, the vehicle group was either handled (n=6) or exposed to CUS (n=6). Likewise, the FGF2 injected group was either handled (n=6) or exposed to CUS (n=6). […]
Gross dissections were performed on the frontal cortex of all brains. […] Using the Bioanalyzer's concentration readings, the samples were normalized to 25 ng/μL of total RNA per subject and stored at −80° C.
cDNA was synthesized using the iScript cDNA Synthesis Kit (Bio-Rad, Hercules, Calif.). […] The double-stranded cDNA solutions were then analyzed for quality and concentration using Invitrogen's Quant-iT PicoGreen dsDNA kit. […] The fluorescently labeled samples were analyzed with a 1420 Victor^2 Multilabel Counter (EG&G Wallac, Wellesley, Mass.) using the basic Fluorescein protocol. […]
Sequences for rat FGFR2 and FGFR3 exons were obtained from NCBI's Entrez Gene database (www.ncbi.nlm.nih.gov) and the Ensembl-Rat gene database (www.ensembl.org). […] FGFR2 and FGFR3 exon sequences were analyzed for secondary structure using the Mfold nucleic acid folding web server. […]

Sprague-Dawley rats = assay: Morris water maze learning and memory test in adults after early postnatal injection; assay type: in vivo; settings: 20 ng/g s.c. the day after birth, tested as adults; vehicle-injected rats 25 seconds
Experimental: (§5) Sprague-Dawley rats were injected with either vehicle or FGF2 (20 ng/g, s.c.) the day after birth and sacrificed after Morris water maze testing as adults. We assessed changes in gene expression using both a candidate approach and a gene discovery approach with laser-capture microdissection of the dentate gyrus followed by microarray analyses.

[4] = test system: genes associated with neural plasticity; assay: Long-term changes in hippocampal gene expression (histochemical and RNA expression assays); assay type: in vivo; settings: adult rats, 20 ng/g s.c. the day after birth
Experimental: as §5

rats = assay: Elevated plus-maze (EPM) and light-dark (LD) anxiety test after chronic administration; assay type: in vivo; settings: 5 ng/g i.p. every 48 hours for 3 weeks
Experimental: Anxiety disorders have a high comorbidity with other neuropsychiatric disorders including Major Depression (MD). […] Rats were placed into “high anxiety” (LR) or “low anxiety” (HR) groups based on their behavior in a variety of motor and behavioral tests. Both groups of animals were administered either FGF2 (5 ng/g) or vehicle by intraperitoneal injection every 48 hours for 3 weeks. One day after the last FGF2 injection, all animals were tested in the elevated plus-maze (EPM) and light-dark (LD) anxiety test.
The apparatus for the EPM test is constructed of black Plexiglass with […] (70 cm from the floor, 45 cm long, and 12 cm wide). Illumination is provided by a 40-watt desk lamp facing a wall and placed behind one of the closed arms. The scientists put the animal inside the system. Animals that are less anxious spend more time in the open arms whereas animals that are more anxious spend less time in the open arms.
The LD test is conducted in a 30×60×30-cm Plexiglas shuttle box with a translucent cover. Each box is divided into two equal-sized compartments by a wall with a 12 cm-wide open door. One compartment is painted white and brightly illuminated, and the other is painted black with very dim light. The time each rat spends in each compartment is monitored by rows of five photocells located 2.5 cm above the grid floor of each compartment. […]

Row | Substance | climbing in the FST (Rodents [1]) | immobility in the FST (Rodents [1]) | swimming in the FST (Rodents [1]) | time in the center quadrant of the EPM (Rodents [2]) | time in the closed arms of the EPM (Rodents [2]) | time in the open arms of the EPM (Rodents [2]) | effect on the magnitude of ratio changes caused by stress [3] | effect on the IIIc:IIIb ratio in the NS or S group ([3]; P>0.1) | time on average to find a hidden platform in Morris Water maze test (Sprague-Dawley rats) [s] | expression of CCK [4] | expression of GAP-43 [4] | expression of NCAM [4] | expression of Rgs4 [4] | expression of SST [4] | expression of Vgf [4] | expression of trkB [4] | anxiety-reducing effects in innately more anxious (LR) rats (rats; LR versus HR rats) | anxiety versus animals who receive vehicle (rats; time in the light compartment (FIG. 9))
1 | FGF system peptide inhibitor: FGF system peptide inhibitor, amino acid sequence=HFKDPKRLY; SEQ ID NO:35 (FGF system peptide inhibitor) [reference compound] | significantly less climbing | more immobility | less swimming | significantly more time | less time | equal time |  |  |  |  |  |  |  |  |  |  |  | 
2 | NCAM: NCAM (FGL peptide), amino acid sequence=EVYVVAENQQGKSKA (SEQ ID NO:34); interacts with the FGF receptor (NCAM (FGL peptide)) |  | less immobility |  | significantly less time | more time (although not significantly more time) | less time |  |  |  |  |  |  |  |  |  |  |  | 
3 | FGF2: FGF receptor ligand; human recombinant FGF2 (Sigma) in Example 6 |  | less immobility | more swimming |  | significantly more time | less time | nor did it significantly affect | did not alter the IIIc:IIIb ratio significantly | 20 | increased | increased | decreased | increased | increased | increased | increased | clearly more pronounced | less anxious
